Where two headings read alike, the source gives them in different places.
Legend:
[1] = biological target: T1, glycine binding pocket of the NMDA receptor (Rattus norvegicus, UniProt P35439); test: [3H]MDL-105,519 displacement studies (rat cortical membranes)
T1 construct: For isolation of the cell membranes, the cortices are homogenized; from tissue; host or cells: rat cerebral cortex membranes (male Sprague-Dawley)
Procedure: Anaesthetised male Sprague-Dawley rats (200-250 g, Janvier, Le Genest-Isle, France) are decapitated and their brains removed rapidly. […] For isolation of the cell membranes, the cortices are homogenized in 20 volumes of ice-cold 0.32 M sucrose (Sigma-Aldrich, Taufkirchen, Germany) using a glass-Teflon homogenizer. The homogenate is centrifuged at 1000×g for 10 minutes, the pellet is discarded and the supernatant centrifuged at 20,000×g for 20 minutes. The resulting pellet is re-suspended in 20 volumes of distilled water and centrifuged for 20 minutes at 8000×g. The supernatant and the buffy coat are then centrifuged three times (48,000×g for 20 minutes) in the presence of 50 mM Tris-HCl, pH 8.0 (assay buffer). All centrifugation steps are carried out at 4° C. After resuspension in 5 volumes of 50 mM Tris-HCl, pH 7.5, the membrane suspension is frozen rapidly at −80° C. On the day of assay, the membranes are thawed and washed four times by resuspension in 50 mM Tris-HCl, pH 7.5, and centrifugation at 48,000×g for 20 minutes. The final pellet is suspended in assay buffer. […] The final protein concentration used for our studies is 400 μg/ml.
A robotic system designed for binding assays (Tecan Deutschland GmbH, Crailsheim, Germany) is loaded with the membrane solution, solutions for bound control (buffer/DMSO 20%), unlabeled glycine (1 mM) for evaluation of non-specific binding, all compounds to be tested (at 20-fold concentrations), radioligand and respective 96-well plates.
The protein/receptor concentration is held constant whereas the amount of specific bound radioligand is determined using increasing concentrations of ligand.
Firstly, the assay plates are loaded with membrane solution and are shaken at 4° C. The mother plates are then prepared by pipetting the compounds into assay buffer/20% DMSO to obtain the desired final concentrations (dose response curve with five different concentrations, e.g. 10, 3, 1, 0.3, and 0.1 μM). After transferring radioligand into the assay plates, the compounds are added (including the bound and the non-specific binding control). The final DMSO concentration is 1%. The assay plates are incubated and shaken at 4° C. for 1 h, before the mixture is exhausted as rapidly as possible via a vacuum manifold using the Multiscreen HTS glass fibre (type B) filter plates (Millipore, Schwalbach, Germany) under a constant vacuum of 450 mbar. The membranes are washed four times with cold assay buffer ([…]). 50 μL of Ultima Gold scintillation cocktail (PerkinElmer, Rodgau-Jügesheim, Germany) is added to the wet filter plates and incubated at room temperature overnight before counting the disintegration per minutes using a liquid scintillation counter (MicroBeta, PerkinElmer, Rodgau-Jügesheim, Germany).
The residual radioactivity after displacement of the test compound (n=5) is then corrected with respect to the set controls.

[2] = biological target: NMDA receptor glycine B site (Rattus norvegicus, UniProt P35439); test: Calcium FLIPR studies, rat cortical neurons (NMDA/D-Serine induced intracellular calcium); type: cell-based; design: Primary neurons are prepared from cortices of embryonal rats at day 17 of pregnancy; endogenous in cells; host or cells: primary rat cortical neurons (E17, 11-13 DIV)
Procedure: Antagonistic potencies of the test compounds are functionally evaluated using electrophysiological whole cell patch-clamp recordings and/or fluorometric intracellular Ca^2+-imaging (FLIPR) screens.
Sprague-Dawley rat embryos (E 17) are decapitated and neocortices are dissected, trypsinized and carefully triturated. The cell suspension is plated on poly-D-lysine pre-coated 96-well Plates (Greiner, Frickenhausen, Germany) at a cell density of 55.000 cells/well. The neurons are cultivated in Neurobasal media containing B27-Supplement and […] L-Glutamine (Biochrom) at 37° C. in a humidified atmosphere of 5% CO2/95% air. Medium is exchanged completely at day 4 and to 50% on day 7. At the time of experiments neurons are 11-13 days in vitro.
The increase of intracellular calcium after stimulation with 30 μM NMDA and 1 μM D-Serine is measured using the fluorometric imaging plate reader (FLIPR) and the Calcium-4-Kit (both Molecular Devices, Ismaning, Germany). Prior to addition of agonist or antagonist (5 different concentrations, n=5) the medium is aspirated and cells are washed once before loading with 150 μL of loading buffer (1 h at room temperature), consisting of Ca-4 sensitive dye reconstituted in extracellular bath solution, pH 7.3. Subsequently, plates are transferred to FLIPR to detect increases in intracellular calcium after the addition of agonist, measured as relative fluorescence units (RFU). Antagonists are pre-incubated with the cells for 10 min at room temperature before the addition of the agonist and co-agonist.
The fluorescence signal increase after addition of agonist reflects the increase of intracellular calcium. Inconsistencies in the amount of cells per well are normalised by using the spatial uniformity correction of the FLIPR software (Screenworks, Molecular Devices). The mean of replicated temporal data (n=5) is calculated and used for graphical representation. For the evaluation of the antagonistic potency, the calcium changes in response to different concentrations of antagonist are determined using an area under the curve (AUC) calculation. All responses (RFU-values) are determined as percentage of control (=maximum response at 30 μM NMDA and 1 μM D-Serine). IC50 values are calculated according the four parameter logistic equation using GraFit (Erithacus Software).

[3] = displacement of 2 nM [3H]-MDL-105,519, rat cortical membranes, read-out: NMDA-MDL 105519-r-CTX - IC50
[4] = rat cortical neurons, stimulation with 30 μM NMDA and 1 μM D-Serine, antagonist pre-incubated 10 min, read-out: NMDA-FLIPR-rCTX-NAM - IC50

| Structure (SMILES) | IC50 [1, 3] | IC50 [2, 4] | IC50 [1] | IC50 [2] |
| --- | --- | --- | --- | --- |
| O=C(O)COc1cccc(NC(=O)COc2cc(C(=O)O)cc3cc(Cl)cc(Cl)c23)c1 [Example 2, 4-[(3-Carboxymethoxyphenylcarbamoyl)-methoxy]-5,7-dichloronaphthalene-2-carboxylic acid] | 414 nM | 3.17 µM | – | – |
| CC(Oc1cc(C(=O)O)cc2cc(Cl)cc(Cl)c12)C(=O)Nc1ccc(CO)cc1 (stereo not drawn) [Example 16, 5,7-Dichloro-4-[1-(4-hydroxymethylphenylcarbamoyl)-ethoxy]-naphthalene-2-carboxylic acid] | 690 nM | 4.66 µM | – | – |
| CC(Oc1cc(C(=O)O)cc2cc(Cl)cc(Cl)c12)C(=O)Nc1ccccc1CO (stereo not drawn) [Example 17, 5,7-Dichloro-4-[1-(2-hydroxymethylphenylcarbamoyl)-ethoxy]-naphthalene-2-carboxylic acid] | – | – | 1190 nM | 12.6 µM |
| O=C(COc1cc(C(=O)O)cc2cc(Cl)cc(Cl)c12)NCc1cccc(CO)c1 [Example 22, 5,7-Dichloro-4-[(3-hydroxymethylbenzylcarbamoyl)-methoxy]-naphthalene-2-carboxylic acid] | 236 nM | 5.4 µM | – | – |
| CC(Oc1cc(C(=O)O)cc2cc(Cl)cc(Cl)c12)C(=O)Nc1cccc(CO)c1 (stereo not drawn) [Example 25, 5,7-Dichloro-4-[1-(3-hydroxymethylphenylcarbamoyl)-ethoxy]-naphthalene-2-carboxylic acid] | 1030 nM | 7.32 µM | – | – |
| O=C(COc1cc(C(=O)O)cc2cc(Cl)cc(Cl)c12)NC(C(=O)O)c1ccccc1 (stereo not drawn) [Example 27, 4-{[(Carboxyphenylmethyl)-carbamoyl]-methoxy}-5,7-dichloronaphthalene-2-carboxylic acid] | 790 nM | 3.5 µM | – | – |
| CN(C(=O)COc1cc(C(=O)O)cc2cc(Cl)cc(Cl)c12)c1cccc(C(=O)O)c1 [Example 31, 4-{[(3-Carboxyphenyl)-methylcarbamoyl]-methoxy}-5,7-dichloronaphthalene-2-carboxylic acid] | 1090 nM | 4.75 µM | – | – |
| O=C(O)c1cc(OC(C(=O)O)c2ccccc2)c2c(Cl)cc(Cl)cc2c1 (stereo not drawn) [Example 32, 4-(Carboxyphenylmethoxy)-5,7-dichloronaphthalene-2-carboxylic acid] | 1510 nM | 6.49 µM | – | – |
| Cc1ccc(S(=O)(=O)NC(=O)COc2cc(C(=O)O)cc3cc(Cl)cc(Cl)c23)cc1 [Example 36, 5,7-Dichloro-4-[2-oxo-2-(toluene-4-sulfonylamino)-ethoxy]-naphthalene-2-carboxylic acid] | 1520 nM | 5.47 µM | – | – |
| O=C(O)c1cc(OCC(=O)N2Cc3ccccc3CC2C(=O)O)c2c(Cl)cc(Cl)cc2c1 (stereo not drawn) [Example 38, 2-[2-(3-Carboxy-6,8-dichloronaphthalen-1-yloxy)-acetyl]-1,2,3,4-tetrahydroisoquinoline-3-carboxylic acid] | 1350 nM | 10.6 µM | – | – |
| O=C(O)Cc1ccc(NC(=O)COc2cc(C(=O)O)cc3cc(Cl)cc(Cl)c23)cn1 [Example 46, 4-[(6-Carboxymethyl-pyridin-3-ylcarbamoyl)-methoxy]-5,7-dichloro-naphthalene-2-carboxylic acid] | 1230 nM | 9.41 µM | – | – |
| O=C(O)c1cc(OCC(=O)N2CCc3ccccc3C2)c2c(Cl)cc(Cl)cc2c1 [Example 52, 5,7-Dichloro-4-[2-(3,4-dihydro-1H-isoquinolin-2-yl)-2-oxo-ethoxy]-naphthalene-2-carboxylic acid] | 2290 nM | 7.35 µM | – | – |
| O=C(COc1cc(C(=O)O)cc2cc(Cl)cc(Cl)c12)Nc1nnn[nH]1 [Example 64, 5,7-Dichloro-4-[(1H-tetrazol-5-ylcarbamoyl)-methoxy]-naphthalene-2-carboxylic acid] | 1260 nM | 9.28 µM | – | – |
| O=C(O)c1cc(OC2CCN(c3ccccc3)C2=O)c2c(Cl)cc(Cl)cc2c1 (stereo not drawn) [Example 65, 5,7-Dichloro-4-(2-oxo-1-phenyl-pyrrolidin-3-yloxy)-naphthalene-2-carboxylic acid] | 1390 nM | 7.54 µM | – | – |
| COCC(Oc1cc(C(=O)O)cc2cc(Cl)cc(Cl)c12)C(=O)Nc1ccccc1 (stereo not drawn) [Example 67, 5,7-Dichloro-4-(2-methoxy-1-phenylcarbamoyl-ethoxy)-naphthalene-2-carboxylic acid] | 1370 nM | 6.49 µM | – | – |

The next lines start with results.

| IC50 [1, 3] | IC50 [2, 4] | Structure (SMILES) | IC50 [1] | IC50 [2] |
| --- | --- | --- | --- | --- |
| 1270 nM | 4.96 µM | COc1ccccc1N1CCC(Oc2cc(C(=O)O)cc3cc(Cl)cc(Cl)c23)C1=O (stereo not drawn) [Example 75, 5,7-Dichloro-4-[1-(2-methoxy-phenyl)-2-oxo-pyrrolidin-3-yloxy]-naphthalene-2-carboxylic acid] | – | – |
| 89 nM | 1.65 µM | NCc1ccc(OCC(=O)O)c(NC(=O)COc2cc(C(=O)O)cc3cc(Cl)cc(Cl)c23)c1 [Example 79, 4-[(5-Aminomethyl-2-carboxymethoxy-phenylcarbamoyl)-methoxy]-5,7-dichloro-naphthalene-2-carboxylic acid] | – | – |
| 1190 nM | 11.3 µM | CC(C)(Oc1ccccc1NC(=O)COc1cc(C(=O)O)cc2cc(Cl)cc(Cl)c12)C(=O)O [Example 81, 4-{[2-(1-Carboxy-1-methyl-ethoxy)-phenylcarbamoyl]-methoxy}-5,7-dichloro-naphthalene-2-carboxylic acid] | – | – |
| 1840 nM | 5.75 µM | O=C(COc1cc(C(=O)O)cc2cc(Cl)cc(Cl)c12)Nc1ccc(Cc2nnn[nH]2)cc1 [Example 86, 5,7-Dichloro-4-{[4-(1H-tetrazol-5-ylmethyl)-phenylcarbamoyl]-methoxy}-naphthalene-2-carboxylic acid] | – | – |
| 1540 nM | 3.8 µM | O=C(COc1cc(C(=O)O)cc2cc(Cl)cc(Cl)c12)Nc1ccc(OCc2nnn[nH]2)cc1 [Example 88, 5,7-Dichloro-4-{[4-(1H-tetrazol-5-ylmethoxy)-phenylcarbamoyl]-methoxy}-naphthalene-2-carboxylic acid] | – | – |
| 499 nM | – | O=C(COc1cc(C(=O)O)cc2cc(Cl)cc(Cl)c12)Nc1cccnc1 [Example 127, 5,7-Dichloro-4-(pyridin-3-ylcarbamoylmethoxy)-naphthalene-2-carboxylic acid] | – | – |
| 980 nM | – | O=C(COc1cc(C(=O)O)cc2cc(Cl)cc(Cl)c12)Nc1ccccn1 [Example 129, 5,7-Dichloro-4-(pyridin-2-ylcarbamoylmethoxy)-naphthalene-2-carboxylic acid] | – | – |
